Reference: patent US10272117B2, “Methods of using an activator of cereblon for neural cell expansion and the treatment of central nervous system disorders” (Celgene Corporation, priority 2014, dated 2019)

Columns and labels:
[1] = tested on: zebrafish embryos; experiment: Brain size, morphology and volume of zebrafish embryos (microscopy, MRI); format: in vivo; conditions: for volume of the whole brain compared to untreated fish: MRI; for brain size: day 2; for head size compared to untreated embryos: microscopic pictures
Description: An aqueous solution of a 25-mer antisense morpholino oligonucleotide (AMO, Gene Tools, LLC) corresponding to the vicinity of the translation initiation codon in the cDNA sequence of the gene to be knocked down ([…] injection conditions were the same as those used for RNA) was injected into the embryos at the 1-cell stage. The sequence of AMO used for the CRBN gene knockdown is 5′-[…]-3′ (SEQ ID NO: 3). The sequence of AMO used for the Lhx2 gene knockdown is 5′-[…]-3′ (SEQ ID NO:4). The sequence of AMO used for the BRD7 gene knockdown is 5′-[…]-3′ (SEQ ID NO:1). The sequence of AMO used for the Ikaros gene knockdown is 5′-[…]-3′ (SEQ ID NO:2). […]
In order to examine the effect of antagonists of BRD7 on brain growth, BRD7 was knocked down or over-expressed in zebrafish embryos. Knockdown of BRD7 was performed by microinjection of antisense morpholino oligonucleotides (AMO). Overexpression of BRD7 was performed by microinjection of synthesized capped mRNA. AMO or capped mRNA was introduced into one-cell stage embryos by using a nitrogen gas-pressure microinjector IM 300 (Narishige). Conditions for microinjection were as follows: gas pressure was about 15 picosiemens; release period was about 30 to about 50 milliseconds per single injection; concentrations of AMOs and capped mRNA were 400 ng/μl and 250 ng/μl in nuclease-free water, respectively. Capped mRNAs were synthesized in vitro using the mMESSAGE mMachine® in vitro transcription kit (Ambion) from cDNAs cloned into pCS2+ plasmids.
The brains of the embryos were examined for morphology and volume by magnetic resonance imaging (MRI). FIGS. 9A, 9B, and 9C show microscopic pictures of the untreated, the BRD7-knockdown, and the BRD7-overexpressing zebrafish embryos, respectively. FIGS. 9D, 9E, and 9F show fluorescent microscopic pictures of the brain regions of the untreated, the BRD7-knockdown, and the BRD7-overexpressing zebrafish embryos, respectively. As shown in these figures, the BRD7-knockdown zebrafish embryos had bigger heads than the untreated embryos. […] The volume of the whole brain of the BRD7-knockdown fish was much bigger than that of the untreated fish, while for the BRD7-overexpressing fish, the brain volume was smaller.
In order to examine the effect of antagonists of Ikaros on brain growth, Ikaros was knocked down or over-expressed in zebrafish embryos. Knockdown of Ikaros was performed by microinjection of antisense morpholino oligonucleotides (AMO). Overexpression of Ikaros was performed by injection of synthesized capped mRNA. AMO or capped mRNA was introduced into one-cell stage embryos by using a nitrogen gas-pressure microinjector IM 300 (Narishige). Conditions for microinjection were as follows: gas pressure was about 15 picosiemens; release period was about 30 to about 50 milliseconds per single injection; concentrations of AMOs and capped mRNA were 400 ng/μl and 250 ng/μl in nuclease-free water, respectively. Capped mRNAs were synthesized in vitro using the mMESSAGE mMachine® in vitro transcription kit (Ambion) from cDNAs cloned into pCS2+ plasmids.
The brains of the embryos were examined for morphology and volume by magnetic resonance imaging (MRI). FIGS. 15A, 15B, and 15C show microscopic pictures of untreated, Ikaros-knockdown, and Ikaros-overexpressing zebrafish embryos at 55 hpf, respectively. As shown in these figures, the Ikaros-knockdown fish had bigger heads than the untreated embryos. […] The volume of the whole brain of the Ikaros-knockdown fish was much bigger than that of the untreated fish, while for the Ikaros-overexpressing fish, the brain volume was smaller.

[2] = tested on: zebrafish embryos; experiment: Immunostaining of neurons, proliferating cells, glia and serotonin-positive cells in zebrafish; format: in vivo; conditions: for numbers of serotonin-positive cells / numbers of radial glia cells: 54-55 hpf; for numbers of radial glia cells: Zrf-2
Description: Antibody staining of early neurons of zebrafish was performed by the following technique. The embryos 24 to 28 hours after fertilization were fixed at 4° C. for 12 hours in a 4% paraformaldehyde/phosphate buffer (pH 8.0). After washing four times with phosphate buffer, where each wash was performed for 15 minutes, blocking was carried out at normal temperature for one hour in 5% newborn goat serum dissolved in 0.5% Triton X-100/phosphate buffer. Primary antibody reaction was carried out using a monoclonal anti-acetylated tubulin antibody diluted at 1:1000 in the same solution at 4° C. for 12 hours. Then, after washing the embryos similarly with phosphate buffer, secondary antibody reaction was carried out using an anti-mouse antibody conjugated with Alexa Fluoro 488 (Molecular Probes) under the same conditions as those applied in the primary antibody reaction. The embryos were then washed with phosphate buffer and transparentized in 30%/50%/70% glycerol (dissolved in phosphate buffer), and then observed with a fluorescent microscope under excitation at 488 nm.
Two-days-old zebrafish were used (for glia cell staining and serotonin-producing cell staining, zebrafish 56 hours and 49 hours after fertilization were used, respectively). Zebrafish were fixed with 4% paraformaldehyde (PFA) and then washed with phosphate buffer (PBS), followed by treatment with 10 μg/ml protease K for partial digestion of the epidermis. After the digestion reaction, the zebrafish were washed with PBST (PBS+0.5% Triton X-100) for 20 minutes and then fixed with PFA again. The fixed zebrafish were washed with PBST at room temperature for one hour, followed by blocking using PBST+5% goat serum. The resulting specimens were reacted with a monoclonal anti-glia antibody (zrf-1/zrf-2) or a rabbit anti-serotonin antibody at 4° C. overnight (12 to 18 hours). Subsequently, the specimens were washed with PBST+5% goat serum for one hour at room temperature, and secondary antibody reaction was carried out by substituting the antibody for a goat anti-mouse IgG antibody (Cy-2 conjugate for glia cell staining) or a goat anti-rabbit IgG antibody (Cy-5 conjugate for serotonin-producing cell staining) at 4° C. overnight (12 to 18 hours). Subsequently, the specimens were washed with PBST at room temperature for one hour. After washing, PBST was replaced by 30%, 50%, and 70% glycerol/PBS, and the whole zebrafish were mounted on glass slides to obtain preparations. Fluorescence was observed under excitation wavelength of Cy-2 and Cy-5, and the distribution of the glia cells or the serotonin-producing cells was recorded. Glia cells were observed from the lateral side of zebrafish, while the serotonin-producing cells were photographed from the dorsal side in order to observe the distribution of the cells along the midline.
Numbers of primary neurons and proliferating cells were analyzed by immunostaining in untreated and Ikaros-knockdown zebrafish embryos at 27 hpf. FIGS. 17A and 17D show the primary neurons in the CNS of the untreated and the Ikaros-knockdown zebrafish embryos, respectively, at 27 hpf by immunostaining with anti-acetylated tubulin antibody. FIGS. 17B and 17E show the proliferating cells in the CNS of the untreated and the Ikaros-knockdown zebrafish embryos, respectively, at 27 hpf by immunostaining with anti-phospho-histone H3 antibodies. […] Global distribution of the primary neurons was normal as shown (scale bar: 50 μm).
The number of phosphorylated histone H3-positive cells was counted in a stacked focal plane of laser confocal microscope at 27 hpf. The average number of the H3-positive cells in the telencephalon, the diencephalon, and the midbrain was statistically compared between the untreated and the Ikaros-knockdown embryos (n=3 in each experiment).
The numbers of radial glial cells and matured neurons were analyzed in untreated and CRBN-overexpressing zebrafish embryos. […]

Substance: 5′-TTCCTGTGCCTCCTCAGTCTCCATC-3′ (all phosphorodiamidate morpholino (PMO)) [Ikaros-knockdown, 25-mer antisense morpholino oligonucleotide (AMO) used for the Ikaros gene knockdown]
- brain development ([1]; 22 hpf): macrocephaly
- volume of the whole brain compared to untreated fish [1]: much bigger
- brain size [1]: enlarged brains
- head size compared to untreated embryos [1]: bigger heads
- number of the primary neurons in the CNS ([2]; 27 hpf, anti-acetylated tubulin): increased
- number of the proliferating cells in the CNS ([2]; 27 hpf, anti-phospho-histone H3): increased
- number of H3-positive proliferating cells in telencephalon, diencephalon and midbrain ([2]; 27 hpf, n=3): increased
- numbers of serotonin-positive cells [2]: increased
- numbers of radial glia cells [2]: increased

Substance: 5′-TGTGTTTCTTGTGCTTTTTGCCCAT-3′ (all phosphorodiamidate morpholino (PMO)) [BRD7-knockdown, 25-mer antisense morpholino oligonucleotide (AMO) used for the BRD7 gene knockdown]
- volume of the whole brain compared to untreated fish [1]: much bigger
- head size compared to untreated embryos [1]: bigger heads

Substance: 5′-AGAGCTGTAGCTGGTTCCCCATTTC-3′ (all phosphorodiamidate morpholino (PMO)) [CRBN-knockdown, 25-mer antisense morpholino oligonucleotide (AMO) used for the CRBN gene knockdown, reference compound]
- brain size [1]: smaller brains
- numbers of serotonin-positive cells [2]: decreased
- numbers of radial glia cells [2]: decreased
